Literature values in publication PMC7172884 (Journal of Molecular Biology, 2006).

Experiments:
[1] = system: HAV; conditions: HAV-infected cells, inhibitor at 5 μM
[2] = biological target: T1, HAV 3C (Human hepatitis A virus genotype IB, UniProt P08617); conditions: in vitro, partial viral polyprotein (ΔP1-2A-2B) as substrate
T1 sequence (P08617 1520-1738 limits assumed): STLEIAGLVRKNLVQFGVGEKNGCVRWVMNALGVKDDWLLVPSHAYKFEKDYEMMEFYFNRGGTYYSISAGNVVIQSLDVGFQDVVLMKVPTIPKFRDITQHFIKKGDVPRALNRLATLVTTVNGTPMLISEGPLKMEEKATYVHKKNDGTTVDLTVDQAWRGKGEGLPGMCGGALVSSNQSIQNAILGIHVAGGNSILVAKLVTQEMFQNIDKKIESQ

Question: For “N-acetyl-leucyl-alanyl-alanyl-(N,N-dimethyl)-glutamine-fluoromethylketone [inhibitor Ia]”, which “reduction of viral yield” value [1] is on record?
Answer: 25 fold

Question: What about the IC50 [2] of the same substance?
Answer: 41 µM
